The text below walks through data of patent publication US3970651A, “Crystalline cephalosporin derivative” (priority 1974, dated 1976).

Values after ≈ are worked out from the molar mass of the structure shown. Values joined by “and” are separate entries in the source; they are usually repeats but may differ in a detail not shown here. Equal entries are not always repeated. Where two headings read alike, the source gives them in different places.

The subject of series [1] is S. aureus 209P (A.T.C.C. 6538P). As to the kind of experiment: Bioassay, turbidometric. In kind it is cell-based.
For series [2] the following is noted: for Behaviour when suspended in water: aqueous suspension.
A short description of another series: Water solubility. The class given is physicochemical. To be noted: in water at 23° C.
The subject of series [3] is bacterial infections. As to the kind of experiment: In vivo antibacterial activity.
The test system of series [4] is bacterial infections. As to the kind of experiment: In vitro antibacterial potency and spectrum. The class given is cell-based.
Series [5] is described as follows: Heat stability / loss of bioactivity of the solid on storage at elevated temperatures.
Another series in a line: in vivo. To be noted: dog, po, 30 mg/kg. The method, then:
Three beagle dogs (mean weight of 8.2 ± 0.4 kg.) were administered 200 mesh 7-[D-α-amino-α-(p-hydroxyphenyl)acetamido]-3-(1,2,3-triazol-5-ylthiomethyl)-3-cephem-4-carboxylic acid propylene glycolate (bioassay 820 mcg./mgm.) orally at doses of 30 mg. of activity/kg. in hard gelatin capsules. All doses and concentrations reported herein are in terms of the amphoteric material and were corrected for differences in biopotency.

The mark [6] stands for this setting: allowance made for inert propylene glycol.

With `N[C@@H](C(=O)NC1C(=O)N2C(C(=O)O)=C(CSc3c[nH]nn3)CSC12)c1ccc(O)cc1` (stereo partly drawn) [BL-S640 mono-methanolate], in series [1], the Bio-assay is listed as 930-960 units/mg.
Turning to `N[C@@H](C(=O)NC1C(=O)N2C(C(=O)O)=C(CSc3cnn[nH]3)CS[C@H]12)c1ccc(O)cc1` (stereo partly drawn) [BL-S640, 7-[D-α-amino-α-(p-hydroxyphenyl)acetamido]-3-(1,2,3-triazol-5-ylthiomethyl)-3-cephem-4-carboxylic acid], the “Degradation in water at alkaline pH” value in series [2] (pH 7) is reported as “degrades very rapidly, as by loss of the thiol moiety”.
`N[C@@H](C(=O)NC1C(=O)N2C(C(=O)O)=C(CSc3c[nH]nn3)CSC12)c1ccc(O)cc1` (stereo partly drawn) [ethanolate]: in series [2], the “Behaviour when suspended in water” value was “gradually lost its ethanol to change into a solid tacky form which lost crystallinity, did not suspend evenly and gummed in time”.
As for `CO.N[C@@H](C(=O)NC1C(=O)N2C(C(=O)O)=C(CSc3cnn[nH]3)CS[C@H]12)c1ccc(O)cc1` (stereo partly drawn) [BL-S640 methanolate, 7-[D-α-amino-α-(p-hydroxyphenyl)acetamido]-3-(1,2,3-triazol-5-ylthiomethyl)-3-cephem-4-carboxylic acid Methanolate], the Bio-assay in series [1] was 850 to 900 µg/mg.
Turning to `N[C@@H](C(=O)NC1C(=O)N2C(C(=O)O)=C(CSc3c[nH]nn3)CSC12)c1ccc(O)cc1` (stereo partly drawn) [BL-S640 propylene glycolate, 7-[D-α-amino-α-(p-hydroxyphenyl)acetamido]-3-(1,2,3-triazol-5-ylthiomethyl)-3-cephem-4-carboxylic acid 1,2-propylene glycolate], in the series “Water solubility”, the solubility is roughly 10 mg/mL (≈ 21.6 mM). Further, in the series with bacterial infections [3] (dosed on a potency basis in terms of the zwitterion), the In vivo results was “substantially the same”. In the series with bacterial infections [4] (in vitro, versus Ser. No. 318,340), the “In vitro potency and spectrum of activity” value is “exhibits the potency and spectrum of activity reported in the above-referenced application Ser. No. 318,340 in a qualitative sense and usually also quantitatively except when it is possible to observe slightly less activity due to its content of the biologically inert propylene glycol”. The “Loss of bioactivity on storage as a solid” value in series [5] (56°C., one month, usual stringent test conditions) is reported as “no more than ten”. In series [5] (solid), the degraded at 24 h is less than 6%, the degraded at 48 h was less than 12% and the degraded at 720 h is less than 10%. In the series “in vivo”, this compound showed a concentration at 0.08 h of 0.04 µg/mL, a concentration at 0.25 h of 0.3 ± 0.1 µg/mL, a concentration at 0.5 h of 5.9 ± 2 µg/mL and a concentration at 1.05 h of 8.4 µg/mL. For the same compound, in “in vivo”, the concentration at 1.5 h stood at 17.7 ± 2 µg/mL, the concentration at 2 h amounted to 18.7 ± 0.9 µg/mL, the concentration at 3 h came out at 13.7 ± 1.2 µg/mL and the concentration at 4 h turned out to be 8.4 ± 1.3 µg/mL. In the series “in vivo”, this compound had a concentration at 6 h of 3.2 ± 0.4 µg/mL, a concentration at 8 h of 1.6 ± 0.2 µg/mL and a half-life of roughly 1.36 h. The compound also came in with a bioassay in series [1] (200 mesh lot dosed to dogs) of 820 mcg./mgm. Besides, in series [1] (bioassay standard, 16.7% 1,2-propylene glycol, 0.3% water), the assigned potency is 820 mcg./mgm. Moreover, in series [1] (capsule blend), the “potency of composite blend” value came to 834 µg/mg. Moreover, the Bio-assay in series [1] (listed as 1,2-propylene glycolate) was in the range of 800 to 850 µg/mg. For the same compound, in series [1] (listed as propylene glycolate), the Bio-assay is 750 to 790 µg/mg and 800 to 860 µg/mg. In series [2] (listed as propylene glycolate), the “Behaviour when suspended in water” value is given as “does not lose biological activity, lose crystallinity, suspend unevenly, oil, clump, settle out or become tacky”.
Take `C=CC.N[C@@H](C(=O)NC1C(=O)N2C(C(=O)O)=C(CSc3cnn[nH]3)CS[C@H]12)c1ccc(O)cc1.O=C(O)CO` (stereo partly drawn) [BL-S640 mono-propylene glycolate, 7-[D-α-amino-α-(p-hydroxyphenyl)acetamido]-3-(1,2,3-triazol-5-ylthiomethyl)-3-cephem-4-carboxylic acid mono-propylene glycolate]: the “Potency and spectrum in vivo versus the zwitterion product” value in the series on bacterial infections [3] (setting [6]) is “substantially the same potency and spectrum in vivo and in vitro”. In the series with bacterial infections [4] (setting [6]), the “Potency and spectrum in vivo and in vitro versus the zwitterion product” value is “substantially the same potency and spectrum in vivo and in vitro”. This compound had a Bio-assay in series [1] of 865 µg/mg. The calculated potency in series [1] (15.6% 1,2-propylene glycol, 0.3% water) is 865 µg/mg. Further, the “Behaviour when suspended in water” value in series [2] was “does not lose biological activity or crystallinity and does not oil, suspend unevenly, clump, settle out or become tacky”.

The term solubility denotes the concentration that dissolves in the medium under given conditions. By half-life is commonly meant the time needed for the level to fall by half in the phase considered.
